In patent publication US20110287089A1, “USE OF A SACCHAROMYCES CEREVISIAE MITOCHONDRIAL NUCLEIC ACIDS FRACTION FOR IMMUNE STIMULATION” (priority 2009, published 2011):
Peptide text beside a SMILES is read from it. * marks the point of attachment. X1 = CCCCCCCCCCCCCCCC(=O)OCC(C*)OC(=O)CCCCCCCCCCCCCCC

How the values were obtained:
[1] = biological target: T1, hTLR2 (Homo sapiens, UniProt O60603); type: cell-based
T1 construct: host or cells: HEK-293 (293/hTLR2-CD14, clone hTLR 2-luc)
Description: (§1) Cells: Human embryonic kidney cells 293 (HEK) were stably transfected with plasmids allowing for the constitutive expression of one or two Toll like Receptors of human origin (hTLR). The resulting cell lines 293/hTLR2-CD14, 293/hTLR3, 293/hTLR4-MD2-CD14, 293/hTLR5, 293/hTLR2/6, 293/hTLR7, 293/hTLR8 and 293/hTLR9 were purchased from InvivoGen (San Diego, Calif., USA). All cell lines were cultivated in the presence of Blasticidin S (10 μg/ml, InvivoGen) in Dulbecco's […] Eagle's medium (DMEM) supplemented with 10% fetal calf serum, 40 μg/ml Gentamycin, 2 mM Glutamine, 1 mM sodium pyruvate (Sigma) and 1× Non Essential Amino acids (NEAA, Gibco). In the case of 293/hTLR2-CD14 and 293/hTLR4-MD2-CD14 Hygromycin B was added to a concentration of 100 μg/ml. All eight cell lines were stably transfected with the NF-kB-inducible reporter plasmid pNiFty (InvivoGen). pNiFty encodes the firefly luciferase gene under control of an engineered ELAM1 promoter which combines five NF-kB sites and the proximal ELAM promoter. Stable transfectants were selected in the presence of 100 μg/ml Zeocin (InvivoGen). The emerging clones “hTLRx-luc” were characterized with respect to EC50 and fold-induction to the respective control TLR ligands. Clones with lowest EC50 and high fold inductions and good/acceptable growth behaviour were chosen.
(§2) In vitro TLR tests—method: Cells diluted in DMEM supplemented with 2% fetal calf serum, 40 μg/ml Gentamycin, 2 mM Glutamine, 1 mM sodium pyruvate (Sigma) and 1×MEM non essential amino acids (NEAA, Gibco) were seeded in 96 well plates. The next day. NA fraction (stock: 1 mg/ml) either alone or in combination with Lipofectin® (as described in Example 1) was added at a concentration of 16 μg/ml and 3-fold serial dilutions thereof. As positive controls, the cell lines were stimulated with a defined amount of their respective reference ligands. The day after stimulation (18-20 hours) later, cells were lysed in 100 μl buffer containing 125 mM Tris pH 7.8, 10 mM EDTA, 5 mM DTT and 5% Triton X-100. Firefly luciferase activity in 10 μl lysate was quantified by integrate measurement of flash luminescence over 1 sec (LB96 P Microlumat, Berthold) after addition of 50 μl luciferase revelation buffer (1× luciferase revelation buffer: 20 mM Tris pH 7.8, 1.07 mM MgCl2, 2.7 mM MgSO4, 0.1 mM EDTA, 33.3 mM DTT, 470 μM luciferine 530 μM ATP and 270 μM CoEnzyme A). The resulting relative light units (RLU) were expressed as percentage of induction compared to the control ligand and analyzed with the Graph Pad Prism 4 software using an equation for sigmoid dose response (determination of EC50).

[2] = biological target: T2, hTLR2/6 (Homo sapiens, UniProt O60603+Q9Y2C9); type: cell-based
T2 construct: host or cells: HEK-293 (293/hTLR2/6, clone hTLR 2/6-luc)
T2 sequence (O60603 21-784): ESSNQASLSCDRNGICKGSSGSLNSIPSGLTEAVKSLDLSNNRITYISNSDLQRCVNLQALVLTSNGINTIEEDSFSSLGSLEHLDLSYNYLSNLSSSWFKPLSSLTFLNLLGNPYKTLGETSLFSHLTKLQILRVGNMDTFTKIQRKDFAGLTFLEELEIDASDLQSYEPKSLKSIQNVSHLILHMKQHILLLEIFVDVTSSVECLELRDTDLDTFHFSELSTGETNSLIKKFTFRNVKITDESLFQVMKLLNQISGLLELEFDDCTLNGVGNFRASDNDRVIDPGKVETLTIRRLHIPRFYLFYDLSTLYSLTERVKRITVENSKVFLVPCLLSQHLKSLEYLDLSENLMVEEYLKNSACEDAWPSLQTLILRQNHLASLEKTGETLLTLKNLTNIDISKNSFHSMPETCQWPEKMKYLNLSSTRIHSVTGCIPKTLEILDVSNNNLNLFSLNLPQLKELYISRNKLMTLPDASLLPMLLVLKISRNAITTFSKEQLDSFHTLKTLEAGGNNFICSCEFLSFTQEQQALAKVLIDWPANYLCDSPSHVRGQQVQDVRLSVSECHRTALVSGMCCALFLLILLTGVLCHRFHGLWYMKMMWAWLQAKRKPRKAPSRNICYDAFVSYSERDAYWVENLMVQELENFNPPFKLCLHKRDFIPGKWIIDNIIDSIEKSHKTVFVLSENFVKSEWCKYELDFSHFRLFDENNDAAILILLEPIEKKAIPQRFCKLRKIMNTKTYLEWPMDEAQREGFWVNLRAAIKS
T2 sequence (Q9Y2C9 32-796): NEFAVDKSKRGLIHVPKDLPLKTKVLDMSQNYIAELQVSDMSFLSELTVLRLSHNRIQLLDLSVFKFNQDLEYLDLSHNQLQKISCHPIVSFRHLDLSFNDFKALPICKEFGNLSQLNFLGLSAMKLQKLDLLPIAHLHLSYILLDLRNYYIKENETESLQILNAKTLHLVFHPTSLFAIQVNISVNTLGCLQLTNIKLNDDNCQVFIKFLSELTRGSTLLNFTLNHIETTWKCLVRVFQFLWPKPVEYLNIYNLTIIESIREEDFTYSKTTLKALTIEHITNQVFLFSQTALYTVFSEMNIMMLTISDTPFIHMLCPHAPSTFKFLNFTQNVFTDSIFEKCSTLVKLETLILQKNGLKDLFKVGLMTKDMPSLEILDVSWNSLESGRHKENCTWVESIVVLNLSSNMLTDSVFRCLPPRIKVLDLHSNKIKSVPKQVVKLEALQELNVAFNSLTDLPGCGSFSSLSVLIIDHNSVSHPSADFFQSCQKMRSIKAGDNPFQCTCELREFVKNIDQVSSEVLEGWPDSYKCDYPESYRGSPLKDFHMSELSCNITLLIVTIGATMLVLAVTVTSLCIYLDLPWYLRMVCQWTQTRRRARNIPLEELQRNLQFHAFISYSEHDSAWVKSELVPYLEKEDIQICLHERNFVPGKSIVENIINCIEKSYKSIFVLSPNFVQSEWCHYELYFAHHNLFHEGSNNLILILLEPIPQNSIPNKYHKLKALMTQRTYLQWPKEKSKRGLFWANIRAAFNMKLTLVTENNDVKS
Description: as §1, §2

[3] = biological target: T3, hTLR5 (Homo sapiens, UniProt O60602); type: cell-based
T3 construct: host or cells: HEK-293 (293/hTLR5, clone hTLR 5-luc)
T3 sequence (O60602 21-858): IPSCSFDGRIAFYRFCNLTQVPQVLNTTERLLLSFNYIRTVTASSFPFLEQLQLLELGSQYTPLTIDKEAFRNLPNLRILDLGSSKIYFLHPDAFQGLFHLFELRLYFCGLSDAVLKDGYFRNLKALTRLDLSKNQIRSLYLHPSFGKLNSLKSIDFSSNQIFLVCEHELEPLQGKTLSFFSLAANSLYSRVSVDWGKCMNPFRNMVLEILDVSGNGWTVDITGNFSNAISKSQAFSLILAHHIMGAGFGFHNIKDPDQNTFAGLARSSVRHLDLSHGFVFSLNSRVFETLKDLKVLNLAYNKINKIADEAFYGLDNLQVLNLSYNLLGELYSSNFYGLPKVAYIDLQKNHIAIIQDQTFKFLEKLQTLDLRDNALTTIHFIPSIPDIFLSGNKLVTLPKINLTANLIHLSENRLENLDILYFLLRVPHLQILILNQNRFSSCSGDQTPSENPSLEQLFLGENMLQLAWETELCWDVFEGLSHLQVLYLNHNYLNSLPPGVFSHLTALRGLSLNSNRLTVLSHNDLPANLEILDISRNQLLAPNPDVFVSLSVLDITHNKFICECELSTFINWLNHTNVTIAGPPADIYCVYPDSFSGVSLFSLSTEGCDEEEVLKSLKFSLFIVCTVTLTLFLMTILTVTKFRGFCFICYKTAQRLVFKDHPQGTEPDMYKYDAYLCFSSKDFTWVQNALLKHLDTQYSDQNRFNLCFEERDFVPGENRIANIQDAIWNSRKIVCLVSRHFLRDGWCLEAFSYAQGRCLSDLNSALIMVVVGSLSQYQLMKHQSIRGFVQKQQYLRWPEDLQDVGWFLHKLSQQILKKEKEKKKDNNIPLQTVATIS
Description: as §1, §2

[4] = system: R9F specific CD8+ T cells secreting IFN-γ; assay: In vivo ELISpot gamma interferon (IFN-γ) after immunisation with HPV16E7; settings: C57BL/6 mice; HPV16E7 protein 10 μg subcutaneously day 0, 7, 14, alone or with NA fraction (25 μg) or NA-B2 fraction (0.4 μg); splenocytes 7 days after last injection; FIG. 2
Description: Animals model: SPF healthy female C57BL/6 mice were obtained from Charles River (Les Oncins, France). The animals were 6-weeks-old upon arrival. At the beginning of experimentation, they were 7-week-old. The animals were housed in a single, exclusive room, air-conditioned to provide a minimum of 11 air changes per hour. The temperature and relative humidity ranges were within 20° C. and 24° C. and 40 to 70% respectively. Lighting was controlled automatically to give a cycle of 12 hours of light and 12 hours of darkness. Specific pathogen free status was checked by regular control of sentinel animals. Throughout the study the animals had access ad libitum to sterilized diet type RM1 (Dietex France, Saint Gratien). Sterile water was provided ad libitum via bottles.
IFN-γ ELIspot assay is a functional test to determine the ability of in vivo primed T cells to secrete IFN-γ upon re-stimulation in vitro with a specific peptide.
Animals were injected 3 times at a one week interval (day 0; day 7; day 14), subcutaneously (at the base of the tail) with preparations as described in Table 4.
Animals were then sacrificed 7 days after the last injection and their splenocytes were used to determine the frequency of R9F specific CD8+ T cells secreting IFN-γ upon re-stimulation. […]

[5] = biological target: T4, hTLR3 (Homo sapiens, UniProt O15455); type: cell-based
T4 construct: host or cells: HEK-293 (293/hTLR3, clone hTLR 3-luc)
T4 sequence (O15455 24-904): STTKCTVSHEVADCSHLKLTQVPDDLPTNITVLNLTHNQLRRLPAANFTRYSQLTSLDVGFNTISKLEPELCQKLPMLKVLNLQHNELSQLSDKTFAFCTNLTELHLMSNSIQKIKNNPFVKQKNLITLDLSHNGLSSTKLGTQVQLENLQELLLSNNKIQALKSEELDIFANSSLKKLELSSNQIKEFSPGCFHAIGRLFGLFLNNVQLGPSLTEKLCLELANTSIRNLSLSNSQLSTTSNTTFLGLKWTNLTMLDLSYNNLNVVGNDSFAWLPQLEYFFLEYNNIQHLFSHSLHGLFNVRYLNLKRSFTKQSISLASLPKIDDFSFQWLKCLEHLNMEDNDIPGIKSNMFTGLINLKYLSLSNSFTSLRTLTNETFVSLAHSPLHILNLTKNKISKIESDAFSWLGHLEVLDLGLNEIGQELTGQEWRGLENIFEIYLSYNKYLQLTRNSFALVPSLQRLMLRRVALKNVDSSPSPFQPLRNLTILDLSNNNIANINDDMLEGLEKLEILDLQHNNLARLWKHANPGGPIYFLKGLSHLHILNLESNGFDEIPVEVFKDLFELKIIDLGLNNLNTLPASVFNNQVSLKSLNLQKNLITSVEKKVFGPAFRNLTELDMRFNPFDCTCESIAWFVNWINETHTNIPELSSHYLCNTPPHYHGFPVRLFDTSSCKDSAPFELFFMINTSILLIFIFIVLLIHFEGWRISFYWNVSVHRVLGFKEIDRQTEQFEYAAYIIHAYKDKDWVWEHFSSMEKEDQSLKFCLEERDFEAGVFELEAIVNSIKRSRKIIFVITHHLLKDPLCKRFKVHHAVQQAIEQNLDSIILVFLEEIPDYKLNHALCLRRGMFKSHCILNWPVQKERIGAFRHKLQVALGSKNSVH
Description: as §1, §2

T1 sequence (O60603 21-784): as the sequence (O60603 21-784) above
T1 sequence (Q9Y2C9 32-796 partner): as the sequence (Q9Y2C9 32-796) above

## CCCCCCCCCCCCCCCC(=O)OCC(CSC[C@H](N)C(=O)NCC(=O)N[C@@H](CC(=O)O)C(=O)N1CCC[C@H]1C(=O)N[C@@H](CCCCN)C(=O)N[C@@H](Cc1c[nH]cn1)C(=O)N1CCC[C@H]1C(=O)N[C@@H](CCCCN)C(=O)N[C@@H](CO)C(=O)N[C@@H](Cc1ccccc1)C(=O)O)OC(=O)CCCCCCCCCCCCCCC (stereo partly shown) [FSL-1] (H-C(X1)GDPKHPKSF-OH; N-terminus and C-terminus assumed)
[1]
  fold induction: 157
[2]
  fold induction: 140

## Flagellin
[3]
  Fold induction max/min: 392
[3]; hTLR 5-luc clone, control TLR ligand
  Ligand EC50: Flagellin 66.2ng/ml

## HPV16E7: HPV16 E7 protein antigen
[4]
  Level of R9F specific T cells secreting IFN-γ (ELISpot): no R9F specific (HPV16E7 protein) T cells secreting IFN-γ

## Poly(I:C)
[5]
  Fold induction max/min: 62
[5]; hTLR 3-luc clone, control TLR ligand
  Ligand EC50: Poly(I:C) 1.8ng/ml
